Data on one molecule can be found in article PMC10759609, “A novel PDPN antagonist peptide CY12-RP2 inhibits melanoma growth via Wnt/β-catenin and modulates the immune cells” (Journal of Experimental & Clinical Cancer Research : CR, 2024).

Peptide text beside a SMILES is read from it.

For series [1], the system named is A375 melanoma xenograft. In words: A375 subcutaneous xenograft, BALB/c nude mice. Format: in vivo. To be noted: tail vein, every two days for 15 days. The protocol: Tumorigenesis assays were conducted in vivo using BALB/c nude mice and BALB/c mice from Guangdong Medical Laboratory Animal Center. The animal study was reviewed and approved by the Administrative Committee on Animal Research of Shenzhen International Graduate School, Tsinghua University (Ethical Development No. 16, 10 November 2021). Samples with 5 × 10^5 A375 or B16F10-Luc melanoma cells were diluted in 100 μL PBS and injected subcutaneously into 6- to 8-week-old female BALB/c nude mice or BALB/c mice. 5 days later, the mice were treated with CY12-RP2 by tail vein administration at various doses (25 mg/kg and 100 mg/kg) every two days. The tumor volume and body weight were measured every 2 days, with the calculation of the tumor volume under the assumption of an ellipsoidal tumor as: tumor volume = length × width^2/2. Tumors from BALB/c nude mice were collected and photographed on day 21, while tumors from the allograft mouse model were measured using bioluminescence imaging. The blood collected from the eyes of BALB/c nude mice were stored at 4 °C for 24 h and then centrifuged for 15 min under the indicated conditions (4 °C, 3000 rpm). The supernatant was collected and assayed for drug toxicity using kits, including AST, ALT, TG, and γ-GT. […]

Series [2] deals with 3D melanoma spheroid (A375). Description: 3D melanoma spheroid / PBMC co-culture. Format: cell-based. To be noted: 0, 2, 10, 50 μM, with increasing concentrations. The protocol: Prepared melanoma cells spheroids were plated in 48-well plates. Following incubation for 3 days, the spheroids were exposed to different concentrations (0, 50, 100 and 200 μM) of CY12-RP2, and changes in spheroid diameter were detected after 5 days of treatment. Additionally, melanoma cell spheroids were treated with various concentrations of CY12-RP2 as described previously, and after 72 h, the spheroids were stained for immunofluorescence with caspase 3 primary antibody. The specific experimental procedures refer to the following immunofluorescence analysis. Additionally, we co-cultured peptide-stimulated PBMC with spheroids to determine the tumor-killing ability of activated PBMC.
Fig. 6 Influence of CY12-RP2 on the immune-mediated anti-tumor capacity of PBMC in vitro and in vivo. A The procedure of PBMC isolation from donor peripheral blood, and the ratio of different immune cells in PBMC was assayed by flow cytometry. B PBMCs were stimulated with CY12-RP2 for 48 h, and the cytokine levels in the supernatant were assayed by ELISA. […] E Brightfield and fluorescent microscopy images of A375 cells (red) co-culture with PBMC (GFP) were stimulated with various concentrations (0, 2, 10, 50 μM) of CY12-RP2. Data are presented as mean ± SD. *p < 0.05, **p < 0.01, ***p < 0.001 versus control

As for `CC(C)C[C@H](NC(=O)[C@H](Cc1ccc(O)cc1)NC(=O)[C@@H](N)[C@@H](C)O)C(=O)N[C@@H](CS)C(=O)N[C@H](C(=O)N[C@@H](C)C(=O)N[C@@H](CS)C(=O)N[C@@H](CC(=O)O)C(=O)N[C@@H](Cc1ccc(O)cc1)C(=O)N[C@H](C(=O)N[C@@H](Cc1c[nH]cn1)C(=O)N[C@@H](Cc1c[nH]cn1)C(=O)O)[C@@H](C)O)[C@@H](C)O` [CY12-RP2] (H-TYLCTACDYTHH-OH; N-terminus and C-terminus assumed), the tumor growth result in series [1] (25 mg/kg and 100 mg/kg, especially 100 mg/kg) is recorded as “significantly inhibited the tumor growth”. The mean body weight entry in series [1] (nude mice, 25 and 100 mg/kg) is given as “no significant change”. In addition, the “tumor-killing capacity of PBMC” value in series [2] is recorded as “increased”.
